We go through 38 compounds from US5101048A, “β-D-phenylthioxylosides, their method of preparation and their use as therapeutic agents” (Fournier Industrie et Sante, priority 1988, dated 1992).

The assay in a line: Venous thrombosis: venous stasis under hypercoagulation (Wessler), thrombus removed and weighed. It is filed as in vivo, male Wistar rats. To be noted: Rattus norvegicus, po, suspension in PEG 400, thrombosis induced 4 hours after treatment; for inhibition in vivo at 3 mg/kg: 3 mg/kg administered orally; for inhibition in vivo at 12.5 mg/kg: 12.5 mg/kg administered orally. The protocol: A venous stasis under hypercoagulation is produced according to the technique described by WESSLER et al. (J. Applied Physiol. 1959, p. 943-946). As in the technique described by J. HAUPMAN et al. (Thrombosis and Haemostasis 43(2), 1980, p. 118), the hypercoagulant used is a solution of activated factor X (Xa) supplied by Flow Laboratories (71 Knat per 12.5 ml of physiological serum).
The study is performed on unfasted male Wistar rats weighing 250 to 280 g, divided into groups of 10 animals each. The products to be tested are administered orally as a suspension in PEG 400. A thrombosis is induced 4 hours after this treatment and the thrombus formed is removed and weighed.
The results obtained at doses of 3 mg/kg or 12.5 mg/kg, administered orally, have been collated in Table II. The results obtained with the known products of the above-mentioned prior art have also been collated in this Table.

Take `N#Cc1cc(C#N)c(S[C@@H]2SC[C@@H](O)[C@H](O)[C@H]2O)c(C#N)c1` [Example 17, 2,4,6-tricyanophenyl 1,5-dithio-β-D-xylopyranoside]: at 3 mg/kg the inhibition in vivo was 8% and the inhibition in vivo at 12.5 mg/kg was 40%.
Regarding `COc1cc(S[C@@H]2SC[C@@H](OC(C)=O)[C@H](OC(C)=O)[C@H]2OC(C)=O)cc(OC)c1OC` [Example 10a, 3,4,5-trimethoxyphenyl 2,3,4-tri-O-acetyl-1,5-dithio-β-D-xylopyranoside], testing at 12.5 mg/kg gave an inhibition in vivo of 62%.
Take `CC(=O)c1ccc(S[C@@H]2SC[C@@H](O)[C@H](O)[C@H]2O)cc1` [Example 11, 4-acetylphenyl 1,5-dithio-β-D-xylopyranoside]: the inhibition in vivo at 3 mg/kg was 47% and the inhibition in vivo at 12.5 mg/kg amounted to 98.3%.
The like results for `N#Cc1ccccc1S[C@@H]1SC[C@@H](O)[C@H](O)[C@H]1O` [Example 6, 2-cyanophenyl 1,5-dithio-β-D-xylopyranoside] were, in that order, 35% and 88.6%.
The like results for `N#Cc1ccccc1O[C@@H]1SC[C@@H](O)[C@H](O)[C@H]1O` [Example 26, 2-cyanophenyl 5-thio-β-D-xylopyranoside] were, in that order, 63.5% and 96%.
`N#Cc1cccc(O[C@@H]2SC[C@@H](O)[C@H](O)[C@H]2O)c1` [Example 27, 3-cyanophenyl 5-thio-β-D-xylopyranoside] showed an inhibition in vivo at 3 mg/kg of 66% and an inhibition in vivo at 12.5 mg/kg of 98%.
In turn, `N#Cc1ccc2cc(O[C@@H]3SC[C@@H](O)[C@H](O)[C@H]3O)ccc2c1` [Example 30, 2-(6-cyanonaphthalenyl) 5-thio-β-D-xylopyranoside] yielded an inhibition in vivo at 3 mg/kg of 51%.
Take `O=[N+]([O-])c1cccc(S[C@@H]2SC[C@@H](O)[C@H](O)[C@H]2O)c1` [Example 12, 3-nitrophenyl 1,5-dithio-β-D-xylopyranoside]: at 12.5 mg/kg the inhibition in vivo was 69%.
Still for that read-out and setting: the same measure for `O[C@@H]1[C@@H](O)[C@H](Sc2ccc3ccccc3c2)SC[C@H]1O` [Example 3, 2-naphthalenyl 1,5-dithio-β-D-xylopyranoside]: 38%.
As to `N#Cc1ccc(-c2ccc(S[C@@H]3SC[C@@H](O)[C@H](O)[C@H]3O)cc2)cc1` [Example 14, 4-(4-cyanophenyl)phenyl 1,5-dithio-β-D-xylopyranoside], the inhibition in vivo at 3 mg/kg was found to be 27% and at 12.5 mg/kg the inhibition in vivo was 86%.
As to `O=[N+]([O-])c1ccccc1O[C@@H]1SC[C@@H](O)[C@H](O)[C@H]1O` [Example 28, 2-nitrophenyl 5-thio-β-D-xylopyranoside], the inhibition in vivo at 3 mg/kg turned out to be 51% and at 12.5 mg/kg the inhibition in vivo was 94%.
The compound `O=C(c1ccc(S[C@@H]2SC[C@@H](O)[C@H](O)[C@H]2O)cc1)C(F)(F)F` [Example 20, 4-trifluoroacetylphenyl 1,5-dithio-β-D-xylopyranoside] returned an inhibition in vivo at 3 mg/kg of 49%.
On to `N#Cc1ccc2cc(S[C@@H]3SC[C@@H](O)[C@H](O)[C@H]3O)ccc2c1` [Example 8, 2-(6-cyanonaphthalenyl) 1,5-dithio-β-D-xylopyranoside], for which the inhibition in vivo at 3 mg/kg was 31% and at 12.5 mg/kg the inhibition in vivo was 94.7%.
The like results for `O=[N+]([O-])c1ccc(O[C@@H]2SC[C@@H](O)[C@H](O)[C@H]2O)cc1` [Example 23, 4-nitrophenyl 5-thio-β-D-xylopyranoside] were, in that order, 37.5% and 94%.
Turning to `COc1cc(S[C@@H]2SC[C@@H](O)[C@H](O)[C@H]2O)cc(OC)c1OC` [Example 10, 3,4,5-trimethoxyphenyl 1,5-dithio-β-D-xylopyranoside], testing at 12.5 mg/kg gave an inhibition in vivo of 36.5%.
`N#Cc1cccc(S[C@@H]2SC[C@@H](O)[C@H](O)[C@H]2O)c1` [Example 5, 3-cyanophenyl 1,5-dithio-β-D-xylopyranoside] yielded an inhibition in vivo at 3 mg/kg of 28% and an inhibition in vivo at 12.5 mg/kg of 79.5%.
Turning to `O[C@@H]1[C@@H](O)[C@H](Sc2ccc(C(F)(F)F)cc2)SC[C@H]1O` [Example 4, 4-trifluoromethylphenyl 1,5-dithio-β-D-xylopyranoside], testing at 12.5 mg/kg gave an inhibition in vivo of 66%.
Take `Nc1ccc(S[C@@H]2SC[C@@H](O)[C@H](O)[C@H]2O)cc1` [Example 18, 4-aminophenyl 1,5-dithio-β-D-xylopyranoside]: at 3 mg/kg the inhibition in vivo was 30% and the inhibition in vivo at 12.5 mg/kg stood at 93%.
For `N#Cc1ccc(S[C@@H]2SC[C@@H](O)[C@H](O)[C@H]2O)c(C#N)c1` [Example 16, 2,4-dicyanophenyl 1,5-dithio-β-D-xylopyranoside], at 3 mg/kg the inhibition in vivo was 42.5% and 12.5 mg/kg produced 99.5% inhibition in vivo.
As for `CC(=O)O[C@@H]1[C@@H](OC(C)=O)[C@H](OC(C)=O)CS[C@H]1Oc1cccc(C#N)c1` [Example 27a, 3-cyanophenyl 2,3,4-tri-O-acetyl-5-thio-β-D-xylopyranoside], the inhibition in vivo at 3 mg/kg amounted to 57%.
In turn, `CC(=O)c1ccc(O[C@@H]2SC[C@@H](O)[C@H](O)[C@H]2O)cc1` [Example 24, 4-acetylphenyl 5-thio-β-D-xylopyranoside] displayed an inhibition in vivo at 3 mg/kg of 55% and an inhibition in vivo at 12.5 mg/kg of 100%.
Compound `O=[N+]([O-])c1ccc(S[C@@H]2SC[C@@H](O)[C@H](O)[C@H]2O)cc1` [Example 2, 4-nitrophenyl 1,5-dithio-β-D-xylopyranoside] returned an inhibition in vivo at 3 mg/kg of 35% and an inhibition in vivo at 12.5 mg/kg of 78%.
For the compound `N#Cc1c(O[C@@H]2SC[C@@H](O)[C@H](O)[C@H]2O)ccc2ccccc12` [Example 31, 2-(1-cyanonaphthalenyl) 5-thio-β-D-xylopyranoside], the inhibition in vivo at 3 mg/kg was 28%.
In turn, `CC(=O)O[C@@H]1[C@@H](OC(C)=O)[C@H](Sc2ccc(C#N)cc2)SC[C@H]1OC(C)=O` [Example 1a, 4-cyanophenyl 2,3,4-tri-O-acetyl-1,5-dithio-β-D-xylopyranoside] registered an inhibition in vivo at 3 mg/kg of 30% and an inhibition in vivo at 12.5 mg/kg of 90%.
In turn, `CC(=O)O[C@@H]1[C@@H](OC(C)=O)[C@H](OC(C)=O)CS[C@H]1Oc1ccc([N+](=O)[O-])cc1` [Example 23a, 4-nitrophenyl 2,3,4-tri-O-acetyl-5-thio-β-D-xylopyranoside] registered an inhibition in vivo at 3 mg/kg of 44%.
On to `CC(=O)O[C@@H]1[C@@H](OC(C)=O)[C@H](OC(C)=O)CS[C@H]1Oc1ccc(C#N)cc1` [Example 22a, 4-cyanophenyl 2,3,4-tri-O-acetyl-5-thio-β-D-xylopyranoside], for which the inhibition in vivo at 3 mg/kg stood at 66%.
For `Nc1cccc(S[C@@H]2SC[C@@H](O)[C@H](O)[C@H]2O)c1` [Example 21, 3-aminophenyl 1,5-dithio-β-D-xylopyranoside], the inhibition in vivo at 3 mg/kg was determined as 31%.
On the same count and under the same terms, the figure for `CC(=O)O[C@@H]1[C@@H](OC(C)=O)[C@H](OC(C)=O)CS[C@H]1Oc1cccc(C(C)=O)c1` [Example 25a, 3-acetylphenyl 2,3,4-tri-O-acetyl-5-thio-β-D-xylopyranoside] is 52%.
On to `O=[N+]([O-])c1ccccc1S[C@@H]1SC[C@@H](O)[C@H](O)[C@H]1O` [Example 7, 2-nitrophenyl 1,5-dithio-β-D-xylopyranoside], for which the inhibition in vivo at 3 mg/kg was 33% and the inhibition in vivo at 12.5 mg/kg turned out to be 96.7%.
The like results for `CC(=O)Nc1ccc(S[C@@H]2SC[C@@H](O)[C@H](O)[C@H]2O)cc1` [Example 19, 4-acetamidophenyl 1,5-dithio-β-D-xylopyranoside] were, in that order, 61% and 93%.
`CC(=O)O[C@@H]1[C@@H](OC(C)=O)[C@H](OC(C)=O)CS[C@H]1Oc1ccc2ccccc2c1C#N` [Example 31a, 2-(1-cyanonaphthalenyl) 2,3,4-tri-O-acetyl-5-thio-β-D-xylopyranoside] showed an inhibition in vivo at 3 mg/kg of 44.5%.
`CC(=O)Nc1ccc(S[C@@H]2SC[C@@H](OC(C)=O)[C@H](OC(C)=O)[C@H]2OC(C)=O)cc1` [Example 19a, 4-acetamidophenyl 2,3,4-tri-O-acetyl-1,5dithio-β-D-xylopyranoside] came in with an inhibition in vivo at 3 mg/kg of 66%.
As for `N#Cc1ccc(O[C@@H]2SC[C@@H](O)[C@H](O)[C@H]2O)cc1` [Example 22, 4-cyanophenyl 5-thio-β-D-xylopyranoside], 3 mg/kg produced 57% inhibition in vivo.
Consider `CC(=O)c1ccccc1O[C@@H]1SC[C@@H](O)[C@H](O)[C@H]1O` [Example 29, 2-acetylphenyl 5-thio-β-D-xylopyranoside], for which the inhibition in vivo at 3 mg/kg stood at 26%.
`CC(=O)O[C@@H]1[C@@H](OC(C)=O)[C@H](Sc2ccc(C#N)cc2C#N)SC[C@H]1OC(C)=O` [Example 16a, 2,4-dicyanophenyl 2,3,4-tri-O-acetyl-1,5-dithio-β-D-xylopyranoside] came in with an inhibition in vivo at 12.5 mg/kg of 72.8%.
`N#Cc1ccc(S[C@@H]2SC[C@@H](O)[C@H](O)[C@H]2O)cc1` [Example 1, 4-cyanophenyl 1,5-dithio-β-D-xylopyranoside] gave an inhibition in vivo at 3 mg/kg of 53% and an inhibition in vivo at 12.5 mg/kg of 90%.
In turn, `CC(=O)c1cccc(O[C@@H]2SC[C@@H](O)[C@H](O)[C@H]2O)c1` [Example 25, 3-acetylphenyl 5-thio-β-D-xylopyranoside] registered an inhibition in vivo at 3 mg/kg of 44.5%.
`O[C@@H]1[C@@H](O)[C@H](Sc2ccccc2C(F)(F)F)SC[C@H]1O` [Example 13, 2-trifluoromethylphenyl 1,5-dithio-β-D-xylopyranoside] had an inhibition in vivo at 12.5 mg/kg of 23%.
